In patent US20240115547A1, “PSYCHOTROPIC AGENTS AND USES THEREOF” (LB PHARMACEUTICALS INC., priority 2021, published 2024):
Read-outs that look alike come from different tables or passages of the source.

Tests used:
[1] = tested on: Dopamine (e.g., D2/D3); experiment: Dopamine RO % by raclopride PET after LB-102, various dosage regimens (Example 3); format: in vivo, human; details: group mean
[2] = tested on: dopamine D2/D3; experiment: D2/D3 RO by dynamic 11C raclopride PET after oral LB-102 in healthy volunteers (Example 1); format: in vivo, human
[3] = PK analysis of LB-102 in healthy human subjects, single and multiple ascending doses (Example 2); format: in vivo; details: for half-life / Cmax / Tmax: both sexes, plasma, oral
Description: Healthy females and males between 18 and 55 years of age with BMI≥18 and ≤30 kg/m2 were enrolled in the study. Exclusion criteria included: history or presence of psychiatric disorder, drug or alcohol abuse, history of QT prolongation or dysrhythmia, fasting blood glucose level of 126 mg/dL, or a known allergy to the drug or its metabolites. The study was planned as a two part study. Part A was comprised of 5 single ascending dose groups, each of 8 subjects. Part B was comprised of 3 multiple ascending doses, two doses a day for 7 days ([…] doses in total) each of 8 subjects. All subjects were randomized 3:1 drug:placebo. The primary endpoint of the study was safety, with pharmacokinetics as a secondary objective.
Plasma concentrations of LB-102 were obtained as a function of time for single oral administration of LB-102 to human subjects at 10 mg (larger cross), 50 mg (triangle), 100 mg (square), 150 mg (smaller cross), and 200 mg (diamond), respectively, are further provided in FIG. 3.

[4] = Demethylation of LB-102 to amisulpride in preclinical animal models; format: in vivo
[5] = 50 mg LB102 oral, 2.5 h after admin
[6] = 50 mg LB102 oral, 7.5 h after admin
[7] = 50 mg LB102 oral, 23.5 h after admin
[8] = 100 mg LB102 oral, 2.5 h after admin
[9] = 100 mg LB102 oral, 7.5 h after admin
[10] = 100 mg LB102 oral, 23.5 h after admin

## CCN1CCCC1CNC(=O)c1cc(S(=O)(=O)CC)c(NC)cc1OC (stereo not drawn) [LB-102]
[1]; 50 mg SS (once a day for 4 days), 8 h after Day 4 administration
  Dopamine RO % (Caudate + Putamen): 72%
[1]; 75 mg QD, 48 h after LB-102 administration
  Dopamine RO % (Caudate + Putamen): 37%
[2]; [5]
  Caudate % RO: 26%
  Putamen % RO: 22%
[2]; [6]
  Caudate % RO: 43%
  Putamen % RO: 36%
[2]; [7]
  Caudate % RO: 50%
  Putamen % RO: 39%
[2]; [8]
  Caudate % RO: 48%
  Putamen % RO: 42%
[2]; [9]
  Caudate % RO: 77%
  Putamen % RO: 71%
[2]; [10]
  Caudate % RO: 74%
  Putamen % RO: 67%
[2]; single oral dose of 50 mg, human subjects (FIG. 1A)
  dopamine D2/D3 RO in caudate/putamen: about 50%
[2]; single oral dose of 100 mg, human subjects (FIG. 1B)
  dopamine D2/D3 RO in caudate/putamen: ~75%
[3]; 50 mg every 12 hours, D1, mean (SD)
  AUC0-inf D1: 1012.6 (100.4) ngh/mL
[3]; 50 mg every 12 hours, D7, mean (SD)
  AUC0-inf D7: 2489.1 (312.4) ngh/mL
[3]; 50 mg every 12 hours, mean (SD)
  CL/F: 33.8 (3.1) L/h
[3]; 50 mg oral LB-102 vs published 50 mg amisulpride
  AUC relative to AUC of 50 mg amisulpride: about 2.5 times
[3]; 75 mg every 12 hours, D1, mean (SD)
  AUC0-inf D1: 1777.9 (309.0) ngh/mL
[3]; 75 mg every 12 hours, mean (SD)
  CL/F: 34.9 (8.8) L/h
[3]; 100 mg every 12 hours, D1, mean (SD)
  AUC0-inf D1: 2152.9 (439.9) ngh/mL
[3]; MAD portion of the study
  accumulation across dose levels: slight to moderate accumulation
  trough concentrations: plateaued prior to the morning dose on Day 4
[3]; human, 10 mg, single administration 10 mg, mean (SD), read-out: T1/2 (converted)
  half-life: 13.7 h
[3]; human, 10 mg, single administration 10 mg, mean, read-out: Cmax
  Cmax: 24.1 ng/mL
[3]; human, 10 mg, single administration 10 mg, read-out: Tmax
  Tmax: 3 h
[3]; human, 50 mg, 50 mg every 12 hours, D1, mean (SD), read-out: Cmax D1
  Cmax: 126 ng/mL
[3]; human, 50 mg, 50 mg every 12 hours, D1, mean (SD), read-out: T1/2 D1 (converted)
  half-life: 4.2 h
[3]; human, 50 mg, 50 mg every 12 hours, D1, read-out: Tmax D1
  Tmax: 2.5 h
[3]; human, 50 mg, 50 mg every 12 hours, D7, mean (SD), read-out: Cmax D7
  Cmax: 224 ng/mL
[3]; human, 50 mg, 50 mg every 12 hours, D7, mean (SD), read-out: T1/2 D7 (converted)
  half-life: 14.3 h
[3]; human, 50 mg, 50 mg every 12 hours, D7, read-out: Tmax D7
  Tmax: 2.5 h
[3]; human, 50 mg, single administration 50 mg, mean (SD), read-out: T1/2 (converted)
  half-life: 11.9 h
[3]; human, 50 mg, single administration 50 mg, mean, read-out: Cmax
  Cmax: 176 ng/mL
[3]; human, 50 mg, single administration 50 mg, read-out: Tmax
  Tmax: 3 h
[3]; human, 75 mg, 75 mg every 12 hours, D1, mean (SD), read-out: Cmax D1
  Cmax: 267 ng/mL
[3]; human, 75 mg, 75 mg every 12 hours, D1, mean (SD), read-out: T1/2 D1 (converted)
  half-life: 4 h
[3]; human, 75 mg, 75 mg every 12 hours, D1, read-out: Tmax D1
  Tmax: 3 h
[3]; human, 75 mg, 75 mg every 12 hours, D7, mean (SD), read-out: Cmax D7
  Cmax: 309 ng/mL
[3]; human, 75 mg, 75 mg every 12 hours, D7, read-out: Tmax D7
  Tmax: 2 h
[3]; human, 100 mg, 100 mg every 12 hours, D1, mean (SD), read-out: Cmax D1
  Cmax: 325 ng/mL
[3]; human, 100 mg, 100 mg every 12 hours, D1, mean (SD), read-out: T1/2 D1 (converted)
  half-life: 4.12 h
[3]; human, 100 mg, 100 mg every 12 hours, D1, read-out: Tmax D1
  Tmax: 2.5 h
[3]; human, 100 mg, single administration 100 mg, mean (SD), read-out: T1/2 (converted)
  half-life: 14.1 h
[3]; human, 100 mg, single administration 100 mg, mean, read-out: Cmax
  Cmax: 348 ng/mL
[3]; human, 100 mg, single administration 100 mg, read-out: Tmax
  Tmax: 3 h
[3]; human, 150 mg, single administration 150 mg, mean (SD), read-out: T1/2 (converted)
  half-life: 12 h
[3]; human, 150 mg, single administration 150 mg, mean, read-out: Cmax
  Cmax: 596 ng/mL
[3]; human, 150 mg, single administration 150 mg, read-out: Tmax
  Tmax: 3 h
[3]; human, 200 mg, single administration 200 mg, mean (SD), read-out: T1/2 (converted)
  half-life: 13 h
[3]; human, 200 mg, single administration 200 mg, mean, read-out: Cmax
  Cmax: 976 ng/mL
[3]; human, 200 mg, single administration 200 mg, read-out: Tmax
  Tmax: 3 h
[3]; human (FIG. 2)
  metabolism of LB-102 to amisulpride: < 3%
[3]; oral dosing, human
  increase of exposure with dose: slightly greater than dose proportional
[3]; orally dosed, human
  absorption: rapidly absorbed
[3]; single administration 10 mg, mean
  AUC0-inf: 252.6 ngh/mL
[3]; single administration 10 mg, mean (SD)
  CL/F: 42.4 (12.6) L/h
[3]; single administration 50 mg, mean
  AUC0-inf: 1595.9 ngh/mL
[3]; single administration 50 mg, mean (SD)
  CL/F: 31.7 (3.8) L/h
[3]; single administration 100 mg, mean
  AUC0-inf: 2809.8 ngh/mL
[3]; single administration 100 mg, mean (SD)
  CL/F: 36.6 (6.9) L/h
[3]; single administration 150 mg, mean
  AUC0-inf: 4636.6 ngh/mL
[3]; single administration 150 mg, mean (SD)
  CL/F: 33.1 (5.3) L/h
[3]; single administration 200 mg, mean
  AUC0-inf: 7002.1 ngh/mL
[3]; single administration 200 mg, mean (SD)
  CL/F: 28.9 (3.4) L/h
[3]; single oral administration of 50 mg to human subjects (FIG. 4B)
  AUC: 1,595 ngh/mL
[4]
  demethylated to amisulpride: up to 50%
